# Data taken from publication PMC10458458, “Characterization of Anticancer Effects of the Analogs of DJ4, a Novel Selective Inhibitor of ROCK and MRCK Kinases” (Pharmaceuticals, 2023).
# pIC50: −log10 of the molar value.
# Columns and labels:
# Test in all cases: NCI-60 screen (SRB)
# Type in all cases: cell-based, human
# MCF7 = MCF7 (Breast Cancer), 10 µM, 48 h; negative = cell death vs time zero
# From the text: (§1) The selected active compounds were screened at NCI, as a part of In Vitro Cell Line Screening Project (IVCLSP), for their effect on cell growth in 60 different cancer cell lines. The 60 human cancer cell line panel included leukemia, melanoma, non-small cell lung cancer, colon, central nervous system (CNS), ovarian, renal, prostate, and breast cancer cell lines. The detailed procedure and applications of NCI-60 cell line screening can be found at https://dtp.cancer.gov/discovery_development/nci-60/default.htm (accessed on 9 January 2023). Briefly, cells were plated in 96-well plates and incubated for 24 h. One set of cells was fixed with trichloroacetic acid at time 0 h (Tz), and SRB (sulphorhodamine B) assays were performed to quantify the cells. The remaining set of cells were treated with 10 µM single concentration of each compound and incubated for 48 h (Te) after which the cells were fixed, and the SRB assays were performed. Data are presented as percent growth relative to the control as 100% according to the following calculations:
# (§2) When Te >/= Tz. Growth(%)=Te−Tz/C−Tz∗100 and when Te < Tz. (1) Growth(%)=Te−Tz/Tz∗100
# (§3) Values between 0–100 indicate cell growth, zero (0) indicates no cell growth, values < 0 indicate cell death.
# SF-539 = settings: 10 µM, 48 h; for percent cell growth: SF-539 (CNS Cancer), negative = cell death vs time zero
# From the text: as §1, §2, §3
# HCT-15 = HCT-15 (Colon Cancer), 10 µM, 48 h; negative = cell death vs time zero
# From the text: as §1, §2, §3
# OVCAR-8 = OVCAR-8 (Ovarian Cancer), 10 µM, 48 h; negative = cell death vs time zero
# From the text: as §1, §2, §3
# OVCAR-5 = OVCAR-5 (Ovarian Cancer), 10 µM, 48 h; negative = cell death vs time zero
# From the text: as §1, §2, §3
# PC-3 = PC-3 (Prostate Cancer), 10 µM, 48 h; negative = cell death vs time zero
# From the text: as §1, §2, §3
# HT29 = HT29 (Colon Cancer), 10 µM, 48 h; negative = cell death vs time zero
# From the text: as §1, §2, §3
# HCT-116 = HCT-116 (Colon Cancer), 10 µM, 48 h; negative = cell death vs time zero
# From the text: as §1, §2, §3
# U251 = U251 (CNS Cancer), 10 µM, 48 h; negative = cell death vs time zero
# From the text: as §1, §2, §3
# IGROV1 = IGROV1 (Ovarian Cancer), 10 µM, 48 h; negative = cell death vs time zero
# From the text: as §1, §2, §3
# NCI-H460 = NCI-H460 (Non-Small Cell Lung Cancer), 10 µM, 48 h; negative = cell death vs time zero
# From the text: as §1, §2, §3
# A498 = A498 (Renal Cancer), 10 µM, 48 h; negative = cell death vs time zero
# From the text: as §1, §2, §3
# HOP-92 = HOP-92 (Non-Small Cell Lung Cancer), 10 µM, 48 h; negative = cell death vs time zero
# From the text: as §1, §2, §3
# NCI-H226 = NCI-H226 (Non-Small Cell Lung Cancer), 10 µM, 48 h; negative = cell death vs time zero
# From the text: as §1, §2, §3
# COLO 205 = COLO 205 (Colon Cancer), 10 µM, 48 h; negative = cell death vs time zero
# From the text: as §1, §2, §3
# M14 = M14 (Melanoma), 10 µM, 48 h; negative = cell death vs time zero
# From the text: as §1, §2, §3
# RXF 393 = RXF 393 (Renal Cancer), 10 µM, 48 h; negative = cell death vs time zero
# From the text: as §1, §2, §3
# SK-OV-3 = SK-OV-3 (Ovarian Cancer), 10 µM, 48 h; negative = cell death vs time zero
# From the text: as §1, §2, §3
# SN12C = SN12C (Renal Cancer), 10 µM, 48 h; negative = cell death vs time zero
# From the text: as §1, §2, §3
# 786-0 = 786-0 (Renal Cancer), 10 µM, 48 h; negative = cell death vs time zero
# From the text: as §1, §2, §3
# KM12 = KM12 (Colon Cancer), 10 µM, 48 h; negative = cell death vs time zero
# From the text: as §1, §2, §3
# DU-145 = DU-145 (Prostate Cancer), 10 µM, 48 h; negative = cell death vs time zero
# From the text: as §1, §2, §3
# HCC-2998 = settings: for percent cell growth: HCC-2998 (Colon Cancer), negative = cell death vs time zero
# From the text: as §1, §2, §3
# K-562 = settings: 10 µM, 48 h; for percent cell growth: K-562 (Leukemia), negative = cell death vs time zero; for increase in cell number: K-562 (leukemia)
# From the text: as §1, §2, §3
# SK-MEL-5 = SK-MEL-5 (Melanoma), 10 µM, 48 h; negative = cell death vs time zero
# From the text: as §1, §2, §3
# SK-MEL-28 = SK-MEL-28 (Melanoma), 10 µM, 48 h; negative = cell death vs time zero
# From the text: as §1, §2, §3
# UACC-257 = UACC-257 (Melanoma), 10 µM, 48 h; negative = cell death vs time zero
# From the text: as §1, §2, §3
SMILES,percent cell growth (MCF7) [%],percent cell growth (SF-539) [%],percent cell growth (HCT-15) [%],percent cell growth (OVCAR-8) [%],percent cell growth (OVCAR-5) [%],percent cell growth (PC-3) [%],percent cell growth (HT29) [%],percent cell growth (HCT-116) [%],percent cell growth (U251) [%],percent cell growth (IGROV1) [%],percent cell growth (NCI-H460) [%],percent cell growth (A498) [%],percent cell growth (HOP-92) [%],percent cell growth (NCI-H226) [%],percent cell growth (COLO 205) [%],percent cell growth (M14) [%],percent cell growth (RXF 393) [%],percent cell growth (SK-OV-3) [%],percent cell growth (SN12C) [%],percent cell growth (786-0) [%],other results
Cl.O=C1NC(=NCCc2ccccc2)SC1=Cc1c[nH]c2ncccc12 (mixture of isomers) [DJ4-HCl],2.0,−37.2,33.5,9.7,18.1,19.2,27.8,5.8,7.6,25.6,15.1,−21.3,11.8,22.4,−6.8,31.7,−30.1,2.1,33.5,19.7,"percent cell growth (KM12): 9.3%; percent cell growth (DU-145): 15.3%; percent cell growth (HCC-2998; 10 µM, 48 h): 66.2%; percent cell growth (K-562): 28.5%; percent cell growth (SK-MEL-5): −0.2%; percent cell growth (SK-MEL-28): 0.8%; percent cell growth (UACC-257): −1.7%"
O=C1N/C(=N\CCc2ccccc2)S/C1=C/c1c[nH]c2ncccc12 [DJ4],4.0,0.4,36.5,14.0,37.8,25.9,30.6,9.7,15.8,14.0,14.1,−7.6,−9.7,3.3,4.8,29.9,−20.2,27.0,15.9,9.0,"percent cell growth (KM12): 13.1%; percent cell growth (DU-145): 20.7%; percent cell growth (HCC-2998; 10 µM, 48 h): 53.9%; pIC50 (HCC-2998; Homo sapiens, HCC-2998 colon cancer cells, NCI-60 screen): < 5.00; percent cell growth (K-562): 29.9%; percent cell growth (SK-MEL-5): 14.5%; percent cell growth (SK-MEL-28): 16.0%; percent cell growth (UACC-257): 14.6%"
C=CC/N=C1\NC(=O)/C(=C\c2c[nH]c3ncccc23)S1 [DJ-Allyl],3.5,−66.2,24.7,10.7,5.3,12.6,26.4,6.3,0.8,17.0,2.2,−34.5,−1.9,10.7,−20.1,24.5,−41.3,−7.0,24.0,4.4,"reduction in cell number (SF-539; SF-539 (CNS)): 60%; percent cell growth (KM12): 7.9%; percent cell growth (DU-145): 12.7%; percent cell growth (HCC-2998; 10 µM, 48 h): 44.6%; increase in cell number (HCC-2998; HCC-2998 (colon), 10 µM, 48 h): ~ 40%; percent cell growth (K-562): 42.1%; increase in cell number (K-562): ~ 40%; percent cell growth (SK-MEL-5): 2.0%; percent cell growth (SK-MEL-28): −2.4%; percent cell growth (UACC-257): 9.6%"
CC/N=C1\NC(=O)/C(=C\c2c[nH]c3ncccc23)S1 [DJE4],4.0,−64.2,16.0,6.3,8.7,2.3,4.3,4.0,−9.5,21.7,2.4,−54.2,4.4,10.8,−33.3,0.7,−39.3,−10.3,12.6,3.0,"percent cell growth (KM12): 6.2%; percent cell growth (DU-145): 9.9%; percent cell growth (HCC-2998; 10 µM, 48 h): 10.2%; percent cell growth (K-562): 26.3%; increase in cell number (K-562): 26%; percent cell growth (SK-MEL-5): 9.2%; percent cell growth (SK-MEL-28): −17.2%; percent cell growth (UACC-257): −15.9%"
